These results are taken from ChEMBL document CHEMBL3227964 (J Med Chem, 1979).

Activity calls are given as the source filed them. The calls are words filed in the database; no cut-off is given here.

Data set [1] concerns Escherichia coli. Description: Induction of sensitization to irradiation in Escherichia coli AB1157 under hypoxic condition assessed as reduction in colony formation at 1 mM measured after irradiation. The data set is classed as functional, organism-based.
The subject of data set [2] is Escherichia coli. As to the kind of experiment: Induction of sensitization to irradiation in Escherichia coli AB1157 under oxic condition assessed as reduction in colony formation at 1 mM measured after irradiation. Type of data set: organism-based. The note with it: in vivo, 1000 µM.
The subject of data set [3] is Escherichia coli. Description: Antimicrobial activity against Escherichia coli AB1157 assessed as reduction in colony formation at 1 mM. The data set is classed as organism-based. As to conditions: in vivo, 1000 µM.

Regarding `COCC(O)Cn1ccnc1[N+](=O)[O-]` (configuration not stated), the outcome in the data set with Escherichia coli [1] was Active.

For the molecule `O=[N+]([O-])c1cnc2n1CCO2`, the results for the Activity entry in the data set on Escherichia coli [2] and with Escherichia coli [3] were “Toxic” and “Non-toxic”, respectively. For the same molecule, in the data set on Escherichia coli [1], the result was Active.

Consider `O=[N+]([O-])c1ncn(CCO)c1Cl`, for which the Activity result with Escherichia coli [2] is “Toxic”; with Escherichia coli [3], “Non-toxic”. Moreover, the outcome in the data set on Escherichia coli [1] was Active.
